Where a name gives a salt, the structure may show the parent alone.
Experiments:
Assay type in all cases: biochemical
[1] = molecular target: T1, sc-urokinase (Homo sapiens, UniProt P00749); assay: In-vitro inhibition of urokinase (chromogenic substrate, Dixon); conditions: 25° C, pH 8.0; mean of at least 3 determinations
T1 construct: purchased Ribosepharm GmbH, Haan, Germany
Method: (§1) In order to determine the activity of the inhibitor, 200 μl of Tris buffer (0.05 mol/l, containing the inhibitor, 0.154 mol of NaCl/l, 5% ethanol, pH 8.0), 25 μl of substrate (Pefachrome UK or Bz-βAla-Gly-Arg-pNA in H2O; Pentapharm Ltd., Basle, Switzerland) and 50 μl of sc-urokinase (Ribosepharm GmbH, Haan, Germany) were incubated at 25° C. After 3 min, the reaction was terminated by adding 25 μl of acetic acid (50%) and the absorption was determined at 405 nm using a Microplate Reader (MR 5000, Dynatech, Denkendorf, Germany). The Ki values were determined in accordance with Dixon by means of linear regression using a computer program. The Ki values are the means of at least 3 determinations; the standard deviation was less than 25%.

[2] = molecular target: T2, plasmin (Homo sapiens, UniProt P00747); assay: In-vitro inhibition of serine proteases of the trypsin type: plasmin
T2 construct: uPA mediates the proteolytic cleavage of plasminogen to give plasmin
T2 sequence (P00747 581-810 limits assumed, species assumed): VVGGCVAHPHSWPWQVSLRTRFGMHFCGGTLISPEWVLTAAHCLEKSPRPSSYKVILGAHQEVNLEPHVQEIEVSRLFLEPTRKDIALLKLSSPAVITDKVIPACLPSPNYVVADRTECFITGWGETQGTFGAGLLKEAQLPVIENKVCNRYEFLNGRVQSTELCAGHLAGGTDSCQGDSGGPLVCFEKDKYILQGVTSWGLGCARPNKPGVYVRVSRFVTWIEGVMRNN
T2 sequence (P00747 97-580 partner limits assumed, species assumed): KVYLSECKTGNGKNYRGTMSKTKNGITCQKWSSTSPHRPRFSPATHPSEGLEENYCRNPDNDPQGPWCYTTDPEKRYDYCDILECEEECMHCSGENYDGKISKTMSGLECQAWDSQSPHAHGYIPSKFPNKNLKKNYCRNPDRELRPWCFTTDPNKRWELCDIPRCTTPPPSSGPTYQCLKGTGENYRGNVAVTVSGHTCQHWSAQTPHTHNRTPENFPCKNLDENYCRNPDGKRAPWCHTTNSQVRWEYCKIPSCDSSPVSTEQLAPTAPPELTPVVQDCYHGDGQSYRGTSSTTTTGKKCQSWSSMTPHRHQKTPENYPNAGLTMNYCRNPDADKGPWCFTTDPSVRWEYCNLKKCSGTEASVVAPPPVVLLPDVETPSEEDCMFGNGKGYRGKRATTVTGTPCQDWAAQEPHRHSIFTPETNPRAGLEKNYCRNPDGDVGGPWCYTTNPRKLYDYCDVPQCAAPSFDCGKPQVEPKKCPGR
Method: as §1
(§2) The inhibitory effect for the enzymes employed was determined in accordance with the principle described in Example 3.

[3] = molecular target: thrombin (Homo sapiens, UniProt P00734); assay: In-vitro inhibition of serine proteases of the trypsin type: thrombin
Method: as §1, §2

**Q.** Which Ki [1] does the source give for `CCOC(=O)N1CCN(C(=O)[C@H](Cc2cccc(NC(=N)N)c2)NS(=O)(=O)c2c(C(C)C)cc(C(C)C)cc2C(C)C)CC1` [Example 1, Nα-2,4,6-triisopropylphenylsulfonyl-3-guanidino-(L)-phenylalanine-4-ethoxycarbonylpiperazine hydrochloride] here?
**A.** 0.47 µM

**Q.** What about the Ki [2] of the same molecule?
**A.** 3.8 µM

**Q.** And the Ki [3]?
**A.** ≥ 12 µM

From patent US7538216B2, “Guanidino phenylalanin compounds used as urokinase inhibitors” (Wilex AG, priority 2002, dated 2009)
